Source: ChEMBL document CHEMBL1201862, “PubChem BioAssay data set” (2004)
Activity calls are given as the source filed them. No stated cut-off is given here; in the data, actives have a measured IC50 and inactives only a lower limit.

Molecular target: Envelope glycoprotein gp160 (Human immunodeficiency virus 1, UniProt Q6QLK5)
Experiment: cell-free HIV fusion peptide-binding blockers – biochemical, uHTS, fluorescence dequenching, […] (AID 1986)

Envelope glycoprotein gp160, sequence (Q6QLK5 whole entry, the tested form may be a part): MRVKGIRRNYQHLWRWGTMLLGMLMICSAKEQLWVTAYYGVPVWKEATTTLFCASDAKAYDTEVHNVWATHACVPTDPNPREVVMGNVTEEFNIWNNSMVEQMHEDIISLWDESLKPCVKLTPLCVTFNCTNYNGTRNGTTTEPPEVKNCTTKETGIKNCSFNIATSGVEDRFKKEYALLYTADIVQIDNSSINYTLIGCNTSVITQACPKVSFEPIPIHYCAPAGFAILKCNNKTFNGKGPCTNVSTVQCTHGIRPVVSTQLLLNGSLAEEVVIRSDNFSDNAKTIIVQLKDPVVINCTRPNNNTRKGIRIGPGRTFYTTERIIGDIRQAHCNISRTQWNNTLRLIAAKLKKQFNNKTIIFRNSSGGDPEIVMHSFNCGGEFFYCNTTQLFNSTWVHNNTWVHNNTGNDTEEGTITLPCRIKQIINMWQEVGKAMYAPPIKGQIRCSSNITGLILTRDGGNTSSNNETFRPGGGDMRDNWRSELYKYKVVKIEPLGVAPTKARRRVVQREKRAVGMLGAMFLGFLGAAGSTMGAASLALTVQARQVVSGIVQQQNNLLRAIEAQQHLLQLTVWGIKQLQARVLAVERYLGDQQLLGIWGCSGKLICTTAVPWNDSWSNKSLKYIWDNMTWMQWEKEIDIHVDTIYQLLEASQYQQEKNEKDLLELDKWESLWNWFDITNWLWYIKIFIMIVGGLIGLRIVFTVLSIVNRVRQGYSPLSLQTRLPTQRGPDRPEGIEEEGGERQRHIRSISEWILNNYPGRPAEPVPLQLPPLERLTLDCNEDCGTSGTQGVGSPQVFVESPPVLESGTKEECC

Row | Structure (SMILES) | IC50
1 | CC(/C=C1\SC(=S)N(c2ccc(C(=O)O)cc2)C1=O)=C\c1ccccc1 | 16.2 µM (active)
2 | C=CCOc1ccc(C(c2c(C(=O)O)[nH]c3ccccc23)c2c(C(=O)O)[nH]c3ccccc23)cc1 | 5.01 µM (active)
